Measured values as given in patent US12186328B2, “Use of CSA compounds to stimulate stem cells and hair growth” (Brigham Young University, priority 2019, dated 2025).

Key:
[1] = tested on: hair growth on depilated dorsal skin of C57BL/6 mice; test: Mouse model of hair regrowth after shaving and depilation, topical CSA-44 cream; type: in vivo, mice (C57BL/6); conditions: for Percentage Change in Hair growth: Day 21, compared with vehicle treated control group; for Hair growth scoring Day 1 / Hair growth scoring Day 3 / Hair growth scoring Day 7 / Hair growth scoring Day 10 / Hair growth scoring Day 14 / Hair growth scoring Day 17: Mean ± SE, n = 8, score 0-10
Text: A mouse model was used to test the effectiveness of a CSA-based treatment composition in stimulating stem cells and regenerating hair growth. Male C57BL/6 mice aged 8 weeks, were housed under environmentally monitored conditions and were fed a standard rodent diet. The hair on the dorsal surface of each mouse was shaved with an animal clipper, which was then followed by application of a depilatory cream to clean the remaining hair as described by Jung M K et al (Life Sci. 2015 May 1; 128:39-46). The mice were then allowed to rest for 24 h.
On the day of experiment, all the animals were weighed and randomized into different treatment groups (n=8) according to body weight. Randomized animals were identified by individual animal marking and cage cards were used for group identification.
The animals of Group 1, the control mice, were treated topically with the cream-based vehicle. The animals of Group 2 were treated topically with 100 mg of […] once daily for 3 weeks. The animals in Group 3 were treated topically with 100 mg of 2.0% CSA-44 test compound once every other day for 3 weeks.
A preliminary tolerability study was conducted in C57BL/6 mice for selecting an appropriate well tolerated dose for the present efficacy study. Based on the results from the preliminary dose tolerability study, 100 mg of a formulation containing 0.5% CSA-44 was uniformly applied topically on the shaven areas of the dorsal skin once daily for 3 weeks. Similarly, 100 mg of 2% CSA-44 formulation was applied topically every other day for 3 weeks. 100 mg of cream vehicle was applied topically on the shaved areas once daily for 3 weeks.
The hair-growth score was evaluated using the scoring pattern below as described by Vegesna et al (Endocrinology 143(11):4389-4396). A score of ‘0’ indicates no change in the amount of hair growth compared with the hair-loss induction day and a score of ‘10’ indicates full hair growth on the entire site on the dorsal skin. Darkening and hair-growth rate was monitored twice weekly for 3 weeks. Images of the dorsal skin of the mice were captured using a digital camera at weekly intervals to notice the start of hair regrowth period and the hair regrowth pattern.
Body weight of the animals were recorded once prior to randomization (pre dose) and twice weekly during the course of the study. All animals were observed once daily for clinical signs and twice daily (morning and evening) for mortality and morbidity. No mortality was observed during the study period. Animals were sacrificed at the end of the study period by following a standard protocol using CO2 induced euthanasia. Results
Hair growth score and body weight were recorded twice weekly during the study period. The percentage (%) change in hair growth was calculated on Day 21 by comparing the treated mice with the vehicle treated control group.

[2] = tested on: hair loss associated with a dermal fungal infection; test: Horse with "summer itch" hair loss treated with a composition including CSA-44; type: in vivo
Text: A treatment composition including CSA-44 was applied to a horse having a “summer itch” condition associated with a dermal fungal infection. […] As shown, the subject horse had several patches of visible hair loss. […] As shown, hair had regrown to completely fill in the previous patches and the regrown hair was thick and full. Typical time for hair to grow back on a horse following treatment of such a fungal infection is approximately 28 days. The CSA-based treatment therefore regenerated hair growth 1.56 times faster than a conventional treatment.

[3] = 0.5% CSA-44, topical, once daily for 3 weeks
[4] = 2% CSA-44, topical, once every other day for 3 weeks

## CCCCCCCCOC(=O)CC[C@@H](C)[C@H]1CC[C@H]2[C@@H]3[C@H](OC(=O)CCN)C[C@@H]4C[C@H](OC(=O)CCN)CC[C@]4(C)[C@H]3C[C@H](OC(=O)CCN)[C@]12C [CSA-44]
[1]; [3]
  Percentage Change in Hair growth: 72%
  Hair growth scoring Day 1: 0.00
  Hair growth scoring Day 3: 0.25
  Hair growth scoring Day 7: 0.50
  Hair growth scoring Day 10: 1.38
  Hair growth scoring Day 14: 2.63
  Hair growth scoring Day 17: 4.88
[1]; [4]
  Percentage Change in Hair growth: 66%
  Hair growth scoring Day 1: 0.00
  Hair growth scoring Day 3: 0.38
  Hair growth scoring Day 7: 0.50
  Hair growth scoring Day 10: 1.50
  Hair growth scoring Day 14: 2.50
  Hair growth scoring Day 17: 4.13
[1]; CSA-44 treated groups, end of 3 weeks
  Skin area with black hair compared with control group: larger
[2]; 18 days versus typical approximately 28 days
  Hair growth regeneration speed versus conventional treatment: 1.56 times faster
[2]; horse, composition including CSA-44
  Treatment time after which hair had regrown to completely fill in the previous patches: 18 days
